In the METLIN SMRT retention time set (Domingo-Almenara et al. 2019):

Test: gradient 5% acetonitrile 3 min, to 50% in 2 min, to 85% in 15 min, held 3 min, 100 µL/min
Settings: column: Zorbax Extend-C18 2.1 x 50 mm; eluents: water / acetonitrile, 0.1% formic acid
Procedure, shortened: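 In both positive and negative ionization mode, a quadrupole time-of-flight mass spectrometer coupled to HPLC analyzed pure standards run in mixtures of ~100 molecules. The Zorbax Extend-C18 column (2.1 × 50 mm, 1.8 μm) was operated at 100 μL/min with water and acetonitrile, each containing 0.1% formic acid. The dead volume was 40 μL and the dwell volume 900 μL. Retention time came from adduct peaks that were computationally picked and individually inspected by hand.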

Row | RP-LC retention time [s] | SMILES
1 | 770 | CCSc1nnc(-c2nn(C)c3c2CN(C(=O)c2ccc(C)cc2)CC3)n1C
2 | 742 | O=C1NC2(CCN(C(=O)c3ccc(F)cc3)CC2)Nc2cc(Cl)ccc21
3 | 1300 | Cc1ccc(-c2noc(-c3nn(CC(=O)NC4CCC(C)CC4)c4ccccc34)n2)cc1 (stereo not drawn)
4 | 778 | O=C(NCCc1ccccc1)Nc1cnn(-c2ncc(N3CCCC3)cn2)c1
5 | 578 | CN1CCN(CCNC(=O)Cn2c(=O)c3cccn3c3ccc(F)cc32)CC1
6 | 736 | O=C(c1ccc(F)cc1F)N1CCN(c2cc(-c3ccc(F)cc3)[nH]n2)CC1
7 | 1000 | CCC(C)NC(=O)c1c2c(cn(-c3ccc(C)cc3)c1=O)C(=O)CC(C)(C)C2 (stereo not drawn)
8 | 663 | Cc1cc(N2CCCC2)n2nc(CN3CCN(c4cccc(Cl)c4)CC3)nc2n1
9 | 662 | COc1cccc2[nH]c(C(=O)NCCC(=O)NCCc3c[nH]c4ccccc34)cc12
10 | 669 | Cc1nn(-c2ccccc2)cc1C(=O)N1CCC(CC(=O)N2CCOCC2)CC1
11 | 911 | CCc1cccc(NC(=O)C2CCCN(S(=O)(=O)c3c[nH]c(C(=O)N4CCCCCC4)c3)C2)c1 (stereo not drawn)
12 | 628 | O=C(Cn1nc(-c2ccco2)ccc1=O)NCc1ccco1
13 | 786 | COc1ccc(Cl)cc1NC(=O)NCC1CN(CC2CC2)CC12CCCCC2 (stereo not drawn)
14 | 753 | CCn1ccc2c(cc(C(=O)Nc3ccc(C)cc3C)n2C)c1=O
15 | 826 | CN(Cc1ccco1)C(=O)CC1CCN(C(=O)c2cc3ccccc3[nH]2)CC1
16 | 742 | Cc1ccc(S(=O)(=O)N2CCC3(CC2)NCCN=C3NCc2ccc(Cl)cc2)cc1
17 | 897 | CCOC(=O)c1c(S(=O)(=O)N2CCC(C(=O)Nc3ccc(F)cc3C)CC2)c(C)n(C)c1C
18 | 1070 | Cc1ccc(Cn2nc3ccc(S(=O)(=O)N4CCCCCC4)cn3c2=O)cc1C
19 | 791 | CCc1ccc(S(=O)(=O)N2CCC3(CC2)NCCN=C3NCc2ccccc2C)cc1
20 | 571 | COc1ccc(CC(=O)NCCc2ccc(N(C)C)cc2)cc1
21 | 1010 | Cc1ccc(-c2nnc(Cc3nc(-c4cccs4)no3)o2)cc1F
22 | 751 | CC1CCN(S(=O)(=O)N2CCC(C(=O)N3CCC(Cc4nncn4CC4CC4)CC3)CC2)CC1

Row | RP-LC retention time [s] | SMILES
23 | 682 | CCN1CCN(c2nc(F)c3c(c2F)S(=O)(=O)CCN3Cc2ccccc2)CC1
24 | 742 | CCOC(=O)N1CCN(C(=O)CSc2ncnc3c2oc2ccccc23)CC1
25 | 879 | O=C(Cc1cccs1)Nc1ccc(OCc2nnc(-c3ccccc3)o2)cc1
26 | 615 | Cc1cc(C)cc(C(=O)NCc2ccc3c(c2)ncn3C)c1
27 | 721 | COc1ccc(-c2c(C)noc2NC(C)=O)cc1S(=O)(=O)Nc1ccccc1
28 | 764 | Cc1cc(C)c(NC(=O)Cn2cnc3onc(C)c3c2=O)c(C)c1
29 | 788 | CCc1nnc(-c2ccc3ccn(CC(=O)Nc4cccc(C(C)=O)c4)c3c2)o1
30 | 859 | Cc1ccccc1S(=O)(=O)N1CCCN(c2ccc(=O)n(-c3ccccc3)n2)CC1
31 | 616 | CC(C)c1noc(-c2ccnc(-n3cnc(C(=O)N4CCCC4)c3)c2)n1
32 | 650 | CC(C)N1CCC(c2nnc3n2CCN(S(=O)(=O)c2ccc(C(F)(F)F)cc2)C3)C1 (stereo not drawn)
33 | 747 | COc1ccc(-c2c(NC(=O)c3ccco3)oc3c(C)cccc3c2=O)cc1OC
34 | 793 | CN1C(=O)c2cc(C(=O)NCc3cccc(Cl)c3)nn2CC1(C)C(=O)NCc1ccccc1 (stereo not drawn)
35 | 599 | Cc1noc(C)c1S(=O)(=O)NCC1CCN(C(=O)c2cccn(C)c2=O)CC1
36 | 1010 | COc1ccc(N2CC(c3noc(-c4cc(C)cc(C)c4)n3)CC2=O)cc1OC (stereo not drawn)
37 | 600 | Cc1ccc2nc(CNC(=O)Cn3nc(C(=O)N4CCCC4)c4ccccc43)[nH]c2c1
38 | 579 | CC(C)n1cnc2cc(CNC(=O)c3ccsc3)ccc21
39 | 796 | Cc1c(C(=O)C(=O)Nc2ccccc2C(N)=O)c2ccccc2n1C
40 | 742 | Cc1cc(=O)n(CC(=O)Nc2ccc3c(c2)OCO3)c(N2CCc3ccccc3C2)n1
41 | 791 | O=C(NCc1ccc2c(c1)OCCCO2)c1cccs1
42 | 596 | NC(=O)c1nsc2c(=O)n(CC(=O)NC3CCCC3)cnc12
43 | 1040 | COc1ccc(N2CCN(c3cc(SCC(=O)Nc4cc(F)ccc4C)ncn3)CC2)cc1
44 | 1130 | Cc1ccccc1NC(=O)C1CCCN(S(=O)(=O)c2cc(-c3noc(C4CCC4)n3)cs2)C1 (stereo not drawn)

Row | RP-LC retention time [s] | SMILES
45 | 1180 | CCn1cc(-c2nc(C(=O)Nc3cc(F)cc(F)c3)cs2)c2cccnc21
46 | 1200 | Cc1cccc(-c2noc(Cn3ncn4nc(-c5ccccc5Cl)cc4c3=O)n2)c1
47 | 1010 | O=C(Nc1ccc2c(c1)CN(S(=O)(=O)c1ccccc1)CC2)c1cc(-c2ccco2)on1
48 | 733 | Cn1c(=O)c2nc(SCCC(=O)NCc3cc(F)cc(F)c3)n(C)c2n(C)c1=O
49 | 769 | Cc1cc(C)c(NC(=O)C2CCCN(c3nnc(C)c4c(C)n(-c5ccccc5)nc34)C2)c(C)c1 (stereo not drawn)
50 | 661 | O=C(C1CCCN(c2nnc(-n3cccc3)s2)C1)N1CCN(Cc2ccccc2)CC1 (stereo not drawn)
51 | 793 | Cc1ccc(C)c2sc(N(C)CC(=O)O)nc12
52 | 1300 | Cc1ccc(-n2nc(C)c3sc(N4CCCC(C(=O)NC5CCCc6ccccc65)C4)nc32)cc1 (stereo not drawn)
53 | 677 | CC(C)(C)c1cnc(CSc2cnc(NC(=O)C3CCNCC3)s2)o1
54 | 808 | CC(C)(C)CC(=O)NCCn1c(=O)n(Cc2ccc(F)cc2)c2cccnc21
55 | 814 | CCc1noc(-c2ccc(-n3cnc(C(=O)NCC(C)C)c3)nc2)n1
56 | 908 | CCC(C)NC(=O)C1CCCN(c2nccn3nc(-c4ccc(C)cc4C)cc23)C1 (stereo not drawn)
57 | 669 | CCCN(C)C(=O)C1CCN(c2cnn(CCC)c(=O)c2)CC1
58 | 715 | Cc1noc(C2CN(C(=O)Nc3cccc(C)c3C)CC23CCOCC3)n1 (stereo not drawn)
59 | 620 | CCOc1ccccc1CN1C[C@@H](CO)[C@H](c2ccncc2)C1
60 | 727 | Cc1ccc(S(=O)(=O)NCCSc2ncccn2)cc1
61 | 794 | O=C(NCc1ccccc1)c1ccc2c(c1)CCN2C(=O)C1CC1
62 | 645 | CCc1nc(-c2csc(S(=O)(=O)N3CCC(C(=O)NCc4cccnc4)CC3)c2)no1
63 | 557 | CCOC(=O)c1ccc(CNC(=O)N2CCC(c3nc4ccncc4n3C)C2)cc1 (stereo not drawn)
64 | 682 | CCCn1nc(-n2cnnc2)c(NC(=O)c2cc(OC)cc(OC)c2)c1C
65 | 683 | CC1CCc2[nH]nc(C(=O)NC3CC3)c2C1 (stereo not drawn)
66 | 585 | CCOc1nccnc1NC1CCN(C(=O)c2ccco2)CC1

Row | RP-LC retention time [s] | SMILES
67 | 955 | CC(C)Cc1nnc(C(=O)Nc2cccc(C(=O)NCCc3c[nH]c4ccccc34)c2)s1
68 | 650 | CCC(C)NC(=O)CSc1nc2nc(C)cc(C)n2n1 (stereo not drawn)
69 | 808 | O=C(c1ccc(F)cc1)N1CCN(S(=O)(=O)c2cc3c4c(c2)CCC(=O)N4CCC3)CC1
70 | 649 | COc1cc(NC(=O)N2CCN(c3cc(-c4ccccc4)ncn3)CC2)cc(OC)c1
71 | 891 | Cc1cc(C(F)F)n2nc(C(=O)Nc3ccc(Br)cc3)nc2n1
72 | 1060 | CCc1nc2cc(-c3noc(-c4sc(C)nc4C)n3)ccc2o1
73 | 600 | O=C(NCc1ccco1)C1CCCN(C(=O)c2cccn2-c2cccnc2)C1 (stereo not drawn)
74 | 863 | O=C(O)c1cc(I)ccc1NC(=O)[C@H](Cc1ccccc1)NCc1ccccc1
75 | 833 | CCOc1ccc(-c2csc(Nc3cc(C)ccn3)n2)cc1
76 | 686 | CN1CCN(C(=O)c2csc(N3CCN(c4ccc(Cl)cc4)CC3)n2)CC1
77 | 637 | COC(=O)c1ccc(C(=O)NCc2nc(C)no2)cc1
78 | 615 | C=CCNC(=O)CCc1c(-c2ccc(Cl)cc2)nc2ccccn12
79 | 680 | Cc1ccc(CSc2nc(CC(=O)N3CCC(C(N)=O)CC3)cs2)cc1
80 | 830 | O=C(c1ccc(F)c(F)c1)N1CCC2(CC1)NC(=O)N(Cc1ccc(F)cc1)C2=O
81 | 1030 | COC(=O)c1c(C)c(C(=O)C(C)N(C(=O)c2ccc(Cl)cc2)C2CC2)c(C)n1C (stereo not drawn)
82 | 818 | CCc1noc(-c2cnc3nc(C)ccc3c2Nc2ccccc2C)n1
83 | 786 | CCCCN(C)C(=O)c1ccc2c(c1)nc1n2CCN(C2CCCCC2)C1=O
84 | 630 | CCOC(=O)C1CCN(C(=O)C2CCc3nc(N(CC)CC)ncc3C2)CC1 (stereo not drawn)
85 | 956 | Cc1ccc(Oc2nccnc2N2CCCC(C(=O)Nc3ccc(N4CCOCC4)cc3)C2)cc1 (stereo not drawn)
86 | 849 | Cc1ccc(S(=O)(=O)c2cnc3cc4c(cc3c2N2CCOCC2)OCCO4)cc1
87 | 900 | CCc1cccc(NS(=O)(=O)c2cc(-c3c(CC)noc3NC(C)=O)ccc2C)c1

Row | SMILES | RP-LC retention time [s]
88 | COc1ccc2c(c1)C1(CCN(S(=O)(=O)c3ccc(C)cc3)C1)C(=O)N2 (stereo not drawn) | 843
